In patent publication US20020045271A1, “COMPOUNDS AND METHODS FOR IDENTIFYING COMPOUNDS THAT INTERACT WITH MICROSOMAL TRIGLYCERIDE TRANSFER PROTEIN BINDING SITES ON APOLIPOPROTEIN B AND MODULATE LIPID BIOSYNTHESIS” (LICATA AND TYRRELL P.C., priority 1998, published 2002):

Experiments:
LDL/MTP binding [1] = molecular target: T1, LDL/MTP binding (Bos taurus, UniProt P55156); experiment: Effect of lipid vesicles on binding of LDL to immobilized MTP; conditions: for effect of inclusion in PC vesicles on PC-stimulated binding of LDL to MTP: added to PC vesicles
T1 sequence (P55156 12-887): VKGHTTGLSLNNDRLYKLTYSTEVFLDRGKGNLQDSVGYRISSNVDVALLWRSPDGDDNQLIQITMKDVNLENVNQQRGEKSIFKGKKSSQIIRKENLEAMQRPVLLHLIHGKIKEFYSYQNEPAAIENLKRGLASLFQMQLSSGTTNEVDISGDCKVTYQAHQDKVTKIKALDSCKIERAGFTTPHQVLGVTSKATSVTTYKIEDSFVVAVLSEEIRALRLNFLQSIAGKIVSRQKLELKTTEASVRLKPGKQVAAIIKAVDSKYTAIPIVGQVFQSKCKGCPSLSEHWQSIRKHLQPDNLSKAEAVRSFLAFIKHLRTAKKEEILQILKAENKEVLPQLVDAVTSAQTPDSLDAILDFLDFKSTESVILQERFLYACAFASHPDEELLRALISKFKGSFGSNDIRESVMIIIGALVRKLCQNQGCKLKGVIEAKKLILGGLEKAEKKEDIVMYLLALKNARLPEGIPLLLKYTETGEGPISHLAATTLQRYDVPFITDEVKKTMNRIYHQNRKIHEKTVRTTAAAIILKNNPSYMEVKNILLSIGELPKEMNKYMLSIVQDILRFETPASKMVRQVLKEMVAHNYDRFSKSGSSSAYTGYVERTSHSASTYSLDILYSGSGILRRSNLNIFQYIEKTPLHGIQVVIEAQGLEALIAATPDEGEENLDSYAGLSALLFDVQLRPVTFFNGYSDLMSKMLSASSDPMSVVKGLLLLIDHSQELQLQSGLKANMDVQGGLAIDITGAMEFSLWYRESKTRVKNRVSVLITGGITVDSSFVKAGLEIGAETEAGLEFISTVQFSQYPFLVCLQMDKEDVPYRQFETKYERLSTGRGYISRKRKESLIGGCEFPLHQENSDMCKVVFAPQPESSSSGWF
T1 sequence (P05307 21-510 partner): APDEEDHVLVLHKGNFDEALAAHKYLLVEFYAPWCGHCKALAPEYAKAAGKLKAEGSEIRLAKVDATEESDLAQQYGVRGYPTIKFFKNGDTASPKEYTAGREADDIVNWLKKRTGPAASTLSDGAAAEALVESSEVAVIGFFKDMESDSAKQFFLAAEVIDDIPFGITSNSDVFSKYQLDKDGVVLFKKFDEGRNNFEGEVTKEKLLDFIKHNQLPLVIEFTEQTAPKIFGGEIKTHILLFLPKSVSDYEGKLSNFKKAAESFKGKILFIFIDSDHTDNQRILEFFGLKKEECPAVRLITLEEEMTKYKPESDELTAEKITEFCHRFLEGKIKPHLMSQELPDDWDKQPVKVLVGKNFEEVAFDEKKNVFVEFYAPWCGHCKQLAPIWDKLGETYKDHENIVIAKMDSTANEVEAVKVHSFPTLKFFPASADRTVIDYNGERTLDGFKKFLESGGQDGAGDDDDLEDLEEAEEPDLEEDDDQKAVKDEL
Protocol: The effect of lipids on the binding of MTP with apoB was also examined. Phosphatidylcholine (PC) and sphingomyelin increased the interactions by 2 and 1.5 times respectively. In similar studies, PC vesicles at a concentration of 2.4 mM increased the binding of LDL to MTP by 2 to 4 times. As a control, the effect of phospholipids on the binding of LDL to the monoclonal antibody 1D1 and polyclonal antibodies was studied. 1D1 binds to a portion of the MTP specific binding site on apoB. This antibody also recognizes all subclasses of VLDL and LDL, as well as delipidated apoB. […] The effect of PC vesicles on the interaction of apoB to polyclonal antibodies was studied by incubating immobilized LDL with the antibodies both in the presence and absence of PC. PC vesicles had no effect on binding.
To study the effect of triglycerides (TG) on apoB/MTP specific binding, PC vesicles or emulsions containing two different concentrations of TG were prepared and their effect on LDL binding to MTP was compared with those of PC vesicles with no TG.
The effect of different lipids was studied in more detail using PC-based vesicles (Table 3). Again, PC vesicles increased the binding of LDL to MTP by 3-fold.
Required amounts of lipids in chloroform were added to a glass vial and the solvent was evaporated under nitrogen gas. A calculated amount of the buffer (15 mM Tris-HCl, 1 mM EDTA, 0.02% sodium azide, pH 7.4) was added, and the contents were sonicated (setting 5, output 50-60%) on ice until the solution was mostly clear. The vesicles were then centrifuged at 3500 rpm for 15 minutes, 4° C., and the supernatant used to assay the effect of vesicles on binding.
LDL (20 nM) was incubated with immobilized MTP (1 μg/ml) in the presence and absence of different concentrations of PC or sphingomyelin vesicles for 2 hours at 37° C. and the amount of LDL bound quantitated. The amount of LDL bound in the absence of lipid vesicles was used as 100%. Parallel experiments were also performed wherein LDL (78 pM) was incubated with immobilized monoclonal antibody, 1D1, instead of MTP. LDL (20 nM) was also incubated with immobilized MTP in the presence of different concentrations of PC, PC/TG (molar ratio 400:1) vesicles, or PC/TG dispersions (molar ratio 1:1) for 2 hours at 37° C., and the amount of apoB bound was quantitated by ELISA.

immobilized LDL [2] = molecular target: T2, immobilized LDL (Homo sapiens, UniProt P04114); experiment: Binding of 125I-MTP / MTP fractions to immobilized LDL
Protocol: The effect of phospholipids on the kinetic parameters of apoB-MTP binding was examined. […] No significant binding of LDL to MTP could be observed at low concentrations (≦3 nM) in the absence of vesicles. However, the effect of vesicles was significant at ≦12.5 nM of LDL. […] In four other experiments, decreases in Kd ranged between 1.5- to 3-fold. The effect of phospholipid vesicles on the binding of ^125I-MTP to immobilized LDL was also examined.
To study the binding of lipid associated MTP with LDL, peaks A, B, and C were pooled, dialyzed and then used to study binding to immobilized LDL. The binding of lipid-poor MTP (peak B), which might have acquired few lipid molecules during its incubation with lipid vesicles, to LDL was increased (70%, P<0.005) compared to the binding of MTP not incubated with lipids (peak A). […] These studies indicate that lipid-associated MTP binds better to LDL as compared to lipid-poor and lipid-free MTP. It is believed that MTP forms stable complexes with phospholipid vesicles and these MTP/lipid complexes have higher affinity for apoB.
Target sequence in this assay (P04114 28-4563, one chain of several): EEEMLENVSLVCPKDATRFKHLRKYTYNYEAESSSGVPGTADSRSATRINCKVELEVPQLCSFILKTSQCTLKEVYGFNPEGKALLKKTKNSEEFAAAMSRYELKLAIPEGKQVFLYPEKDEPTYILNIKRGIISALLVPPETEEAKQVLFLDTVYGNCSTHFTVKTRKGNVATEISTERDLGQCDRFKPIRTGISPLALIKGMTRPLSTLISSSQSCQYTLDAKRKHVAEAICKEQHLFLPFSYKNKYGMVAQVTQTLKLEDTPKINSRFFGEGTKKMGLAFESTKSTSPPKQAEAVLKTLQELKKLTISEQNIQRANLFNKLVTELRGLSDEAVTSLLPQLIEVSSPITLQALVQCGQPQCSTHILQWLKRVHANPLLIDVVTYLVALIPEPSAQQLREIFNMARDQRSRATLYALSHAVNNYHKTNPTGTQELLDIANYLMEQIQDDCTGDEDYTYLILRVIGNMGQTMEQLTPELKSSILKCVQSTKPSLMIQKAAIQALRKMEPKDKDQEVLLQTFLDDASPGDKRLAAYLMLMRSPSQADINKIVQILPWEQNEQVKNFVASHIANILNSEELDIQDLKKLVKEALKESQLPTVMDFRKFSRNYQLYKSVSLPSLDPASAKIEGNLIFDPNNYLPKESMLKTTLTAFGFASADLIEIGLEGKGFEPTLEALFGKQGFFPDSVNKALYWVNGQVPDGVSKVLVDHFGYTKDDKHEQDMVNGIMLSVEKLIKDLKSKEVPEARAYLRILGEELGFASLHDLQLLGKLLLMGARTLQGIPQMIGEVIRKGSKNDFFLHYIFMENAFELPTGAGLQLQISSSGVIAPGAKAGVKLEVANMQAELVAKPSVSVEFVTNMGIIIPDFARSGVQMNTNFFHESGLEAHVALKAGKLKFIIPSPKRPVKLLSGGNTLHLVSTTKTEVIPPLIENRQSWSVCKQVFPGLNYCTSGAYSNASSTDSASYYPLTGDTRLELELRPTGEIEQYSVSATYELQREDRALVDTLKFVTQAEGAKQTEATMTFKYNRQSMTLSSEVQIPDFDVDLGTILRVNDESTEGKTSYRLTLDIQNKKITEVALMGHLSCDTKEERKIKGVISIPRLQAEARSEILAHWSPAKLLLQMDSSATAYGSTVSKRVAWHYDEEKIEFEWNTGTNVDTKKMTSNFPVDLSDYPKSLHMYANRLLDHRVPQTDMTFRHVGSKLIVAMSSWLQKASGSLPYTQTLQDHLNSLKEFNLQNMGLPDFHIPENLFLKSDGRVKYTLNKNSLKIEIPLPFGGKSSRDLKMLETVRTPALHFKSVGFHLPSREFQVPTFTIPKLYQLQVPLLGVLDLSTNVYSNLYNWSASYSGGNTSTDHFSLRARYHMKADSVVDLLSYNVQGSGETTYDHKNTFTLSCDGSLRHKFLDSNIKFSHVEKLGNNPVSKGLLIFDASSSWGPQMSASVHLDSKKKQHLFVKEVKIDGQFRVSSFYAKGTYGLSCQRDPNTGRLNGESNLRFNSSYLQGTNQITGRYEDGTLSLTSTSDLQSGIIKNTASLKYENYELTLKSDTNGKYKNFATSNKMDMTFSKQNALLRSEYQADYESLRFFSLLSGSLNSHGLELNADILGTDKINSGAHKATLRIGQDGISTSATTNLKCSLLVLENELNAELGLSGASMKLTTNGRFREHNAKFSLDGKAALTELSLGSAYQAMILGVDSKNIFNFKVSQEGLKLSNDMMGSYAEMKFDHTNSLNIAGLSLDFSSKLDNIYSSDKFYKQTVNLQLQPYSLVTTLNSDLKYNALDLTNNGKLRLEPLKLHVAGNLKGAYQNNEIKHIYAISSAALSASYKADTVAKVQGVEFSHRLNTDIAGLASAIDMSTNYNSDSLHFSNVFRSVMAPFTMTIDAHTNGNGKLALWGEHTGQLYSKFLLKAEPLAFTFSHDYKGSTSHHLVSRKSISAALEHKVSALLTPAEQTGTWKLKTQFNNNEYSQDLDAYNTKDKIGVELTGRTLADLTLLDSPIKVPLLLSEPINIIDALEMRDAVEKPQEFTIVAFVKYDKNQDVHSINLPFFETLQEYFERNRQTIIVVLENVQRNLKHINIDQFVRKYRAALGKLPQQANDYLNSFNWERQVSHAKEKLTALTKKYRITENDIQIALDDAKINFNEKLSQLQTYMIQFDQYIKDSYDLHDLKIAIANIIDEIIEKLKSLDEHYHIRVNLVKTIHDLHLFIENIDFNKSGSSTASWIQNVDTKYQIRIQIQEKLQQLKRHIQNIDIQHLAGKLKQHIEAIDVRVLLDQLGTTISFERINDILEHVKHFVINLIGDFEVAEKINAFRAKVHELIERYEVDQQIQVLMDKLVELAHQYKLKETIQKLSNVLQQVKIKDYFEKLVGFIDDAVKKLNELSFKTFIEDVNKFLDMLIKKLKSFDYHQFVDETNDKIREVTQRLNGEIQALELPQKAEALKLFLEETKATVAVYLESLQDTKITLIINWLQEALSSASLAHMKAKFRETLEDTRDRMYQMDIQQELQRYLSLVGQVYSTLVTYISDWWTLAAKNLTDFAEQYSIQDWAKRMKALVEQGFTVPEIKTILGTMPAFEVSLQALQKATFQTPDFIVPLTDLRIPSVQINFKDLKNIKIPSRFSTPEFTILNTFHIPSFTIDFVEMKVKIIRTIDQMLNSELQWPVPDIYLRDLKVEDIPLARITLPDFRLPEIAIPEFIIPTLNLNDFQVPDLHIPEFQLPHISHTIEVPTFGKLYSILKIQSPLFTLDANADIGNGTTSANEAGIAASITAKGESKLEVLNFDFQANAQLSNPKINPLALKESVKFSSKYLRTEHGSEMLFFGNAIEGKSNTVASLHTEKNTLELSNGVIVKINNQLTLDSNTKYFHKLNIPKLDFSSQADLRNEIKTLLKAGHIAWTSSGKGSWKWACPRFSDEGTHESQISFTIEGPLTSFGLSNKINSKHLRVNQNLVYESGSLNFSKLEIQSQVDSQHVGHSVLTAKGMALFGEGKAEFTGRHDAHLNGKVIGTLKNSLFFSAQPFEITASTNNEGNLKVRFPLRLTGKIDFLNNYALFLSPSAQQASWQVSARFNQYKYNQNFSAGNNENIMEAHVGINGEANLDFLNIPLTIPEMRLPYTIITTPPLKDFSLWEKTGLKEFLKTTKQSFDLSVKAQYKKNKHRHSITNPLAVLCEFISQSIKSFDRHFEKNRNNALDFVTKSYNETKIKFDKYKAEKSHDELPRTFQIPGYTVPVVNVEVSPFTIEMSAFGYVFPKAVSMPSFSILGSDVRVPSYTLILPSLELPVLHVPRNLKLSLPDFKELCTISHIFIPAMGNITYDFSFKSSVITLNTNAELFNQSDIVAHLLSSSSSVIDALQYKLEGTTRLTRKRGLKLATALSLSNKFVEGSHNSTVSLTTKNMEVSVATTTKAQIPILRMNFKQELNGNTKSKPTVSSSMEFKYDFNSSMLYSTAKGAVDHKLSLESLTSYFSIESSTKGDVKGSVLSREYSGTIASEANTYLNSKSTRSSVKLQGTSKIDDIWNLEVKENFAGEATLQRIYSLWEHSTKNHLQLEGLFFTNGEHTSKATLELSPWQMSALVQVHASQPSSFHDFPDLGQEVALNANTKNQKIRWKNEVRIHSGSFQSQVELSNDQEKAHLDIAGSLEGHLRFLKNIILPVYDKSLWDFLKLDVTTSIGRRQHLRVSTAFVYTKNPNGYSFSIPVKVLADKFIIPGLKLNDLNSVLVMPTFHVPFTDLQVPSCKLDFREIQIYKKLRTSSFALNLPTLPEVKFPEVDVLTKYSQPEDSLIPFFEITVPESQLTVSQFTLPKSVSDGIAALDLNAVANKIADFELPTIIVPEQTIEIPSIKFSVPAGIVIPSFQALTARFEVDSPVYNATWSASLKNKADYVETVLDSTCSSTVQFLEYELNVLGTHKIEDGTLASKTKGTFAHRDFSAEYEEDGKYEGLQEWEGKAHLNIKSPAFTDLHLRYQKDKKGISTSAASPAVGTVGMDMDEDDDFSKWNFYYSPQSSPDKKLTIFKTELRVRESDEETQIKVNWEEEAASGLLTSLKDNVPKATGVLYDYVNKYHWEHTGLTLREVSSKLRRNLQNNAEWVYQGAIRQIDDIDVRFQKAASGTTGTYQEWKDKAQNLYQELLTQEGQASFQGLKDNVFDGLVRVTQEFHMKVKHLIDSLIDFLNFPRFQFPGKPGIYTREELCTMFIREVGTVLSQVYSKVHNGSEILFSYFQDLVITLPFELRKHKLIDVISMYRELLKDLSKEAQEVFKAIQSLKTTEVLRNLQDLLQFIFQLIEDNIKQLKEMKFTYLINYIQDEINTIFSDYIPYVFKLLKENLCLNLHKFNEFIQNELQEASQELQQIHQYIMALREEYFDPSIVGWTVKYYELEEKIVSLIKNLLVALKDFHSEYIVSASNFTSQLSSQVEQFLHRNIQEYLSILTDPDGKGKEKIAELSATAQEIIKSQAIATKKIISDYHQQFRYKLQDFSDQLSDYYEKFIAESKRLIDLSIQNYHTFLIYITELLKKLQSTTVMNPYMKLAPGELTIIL

LDL/MTP binding [3] = molecular target: T1, LDL/MTP binding; experiment: Effect of compounds on binding of LDL to immobilized MTP (ELISA); design: species or system human
Protocol: (§1) Studies were performed to determine whether apoB/MTP binding was required for secretion of apoB-containing lipoproteins. Several compounds were screened. In the absence of any test compound, 15.47 fmol of low density lipoproteins (LDL)which contain ApoB was bound to immobilized MTP. Two test compounds, AGI-3 and AGI-S17, inhibited 70 to 90% of the binding at 40-50 μM concentrations. […] The effect of these same compounds on MTP's lipid transfer activity was also evaluated. BMS-200150 inhibited triglyceride transfer activity by 60% at concentrations in the range of 20 to 50 μM. AGI-3 inhibited only 20-30% of the activity at these same concentrations.
ELISA plates coated in triplicate with purified heterodimeric MTP (1 μg/well) were incubated with human LDL (1 μg/well) in the presence of indicated concentrations of various compounds. Microtiter wells were washed three times with PBS-Tween and apoB bound was quantitated by a sandwich ELISA (Hussain, M. M. et al. 1995 Arterioscl. Thronb. Vasc. Biol. 15:485-494). In parallel, a standard curve for apoB was generated by coating wells with a monoclonal antibody, 1D1, and incubating with different concentrations of LDL (0-14 ng/well) as previously described (Hussain, M. M. et al. 1995 Arterioscl. Thromb . Vasc. Biol. 15:485-494).

MTP = molecular target: T3, MTP (Bos taurus, UniProt P55156); experiment: MTP triglyceride transfer activity; format: biochemical; conditions: 20 to 50 μM
T3 sequence (P55156 12-887): T1 sequence (P55156 12-887)
T3 sequence (P05307 21-510 partner): T1 sequence (P05307 21-510 partner)
Protocol: as §1

immobilized LDL [4] = molecular target: T2, immobilized LDL; experiment: Binding of apoA-I and apoA-I/lipid complexes to immobilized LDL
Protocol: The binding of apoA-I and apoA-I/lipid complexes to immobilized LDL was examined. ApoA-I incubated with or without lipid vesicles was subjected to ultracentrifugation and apoA-I/lipid complexes were isolated. Binding of apoA-I and apoA-I/lipid complexes to immobilized LDL was then examined.
Target sequence in this assay (P04114 28-4563): as the sequence (P04114 28-4563, one chain of several) above

For triglycerides [TG], the “effect on LDL binding to MTP” value (LDL/MTP binding [1]; PC vesicles with or without TG) was “no additional effect”.
phosphatidyl serine [PS] was tested, and the “effect of inclusion in PC vesicles on PC-stimulated binding of LDL to MTP” value (shortened to “effect of inclusion in PC vesicles”) (LDL/MTP binding [1]) was “significantly decreased”.
With “peak C: MTP associated with lipid vesicles, fractions 3-9” the “amount bound to LDL compared to MTP alone” value (immobilized LDL [2]) was “three-fold higher”.
“peak B: lipid-poor MTP fraction recovered after incubation with PC vesicles, fractions 21-24” was tested, and the “increase of binding to immobilized LDL compared to MTP not incubated with lipids (peak A)” value (immobilized LDL [2]; P<0.005) was 70%.
`CC(C)CCC[C@@H](C)[C@H]1CC[C@H]2[C@@H]3CC=C4C[C@@H](O)CC[C@]4(C)[C@H]3CC[C@]12C` [cholesterol] was tested, and the “effect of inclusion in PC vesicles” value (LDL/MTP binding [1]) was “no additional effect”.
For phosphatidyl inositol [PI], the “effect of inclusion in PC vesicles” value (LDL/MTP binding [1]) was “significantly decreased”.
In the case of `O=C1c2ccccc2CN1C1CCN(CCC(c2ccccc2)c2ccccc2)CC1` [BMS-200150], the “effect on LDL/MTP binding” value (LDL/MTP binding [3]) is reported as “did not effect LDL/MTP binding” and the “inhibition of triglyceride transfer activity” value (MTP) is reported as 60%.
In the case of “apoA-I/lipid complexes: apoA-I incubated with lipid vesicles, complexes isolated by ultracentrifugation”, the “binding to immobilized LDL compared to free apoA-I” value (immobilized LDL [4]) is reported as “significantly less”.
